In US20260159561A1 (MyNeuroCure Oy, priority 2017, published 2026):

How the values were obtained:
[1] = system: Huntington's disease rat model (quinolinic acid); test: Quinolinic acid Huntington's disease rat model, rotarod and grip strength; type: in vivo; conditions: single intrastriatal injection 2 weeks after QA, equimolar to CDNF 10 micrograms, vs QA+PBS
Source text: Adult Wistar rats received a single, unilateral intrastriatal injection of quinolinic acid (QA) 225 nmol into coordinates: A/P+0.7; L/M+2.8; D/V −6.0. Quinolinic acid is a toxin that induces striatal neuron death by an excitotoxic process. […] Rats were randomized to groups before the treatments started. Rotarod and grip strength tests were done weekly.

[2] = system: ER stressed superior cervical ganglia (SCG) sympathetic neurons; test: Survival of tunicamycin ER-stressed SCG neurons microinjected with expression plasmids; type: cell-based, mouse; conditions: expressed from microinjected plasmids; tunicamycin 2 μM; counted after three days
Procedure: (§1) Non-neuronal cells were removed by extensive preplating. Almost pure neurons were cultured in polyornithine/laminin (Sigma)-coated 35-mm plastic dishes in the small-size standard microislands in the Neurobasal medium and B27 supplement (Invitrogen/Gibco) in the presence of 30 ng/ml mouse nerve growth factor (NGF) (Promega) for 5-6 days. NGF was deprived by extensive washing and addition of the function-blocking anti-NGF antibodies (Roche). The neurons were pressure-microinjected with special neuronal microinjection equipment (Hellman et al., 2011; Hamner et al., 2001; Lindholm et al., 2002; Sun et al., 2001; Yu et al., 2003)(Sun et al., 2001; Sun et al., 2003). For the survival assay, all neurons on the microislands were counted in the beginning (initial number) and the end (three days) of the experiment and expressed as % of initial.
(§2) Microinjection of the sympathetic neurons was performed as described earlier (Yu, L. Y., Jokitalo, E., Sun, Y. F., Mehlen, P., Lindholm, D., Saarma, M., and Arumäe, U. (2003) J. Cell Biol. 163, 987-997). […] Next day tunicamycin (2 μM) was added, and after 3 days the living fluorescent neurons were counted. Living fluorescent (EGFP-expressing or Dextran Texas Red-containing) neurons were “blindly” counted three days later and expressed as percent of initial living fluorescent neurons counted 2-3 hours after microinjection. […]

[3] = system: rats in the 6-OHDA model of Parkinson's disease; conditions: applied before the toxin; cited from earlier work
ER stressed SCG neurons = test: Survival of tunicamycin ER-stressed SCG neurons microinjected with recombinant protein; type: cell-based, mouse; conditions: recombinant protein microinjected into the cytoplasm; tunicamycin 2 μM; counted after 3 days
Procedure: as §1, §2

rat PC6 cells = test: Internalization of iodinated proteins into PC6.3 cells; type: cell-based; conditions: PC6 cells with or without thapsigargin, 90 min, acid wash
Procedure: Rat PC6.3 pheochromocytoma cells were grown on the 24 well plate in DMEM culture with 10% FCS and 5% horse serum. […] 90 min. The cells were put on ice, washed once with 0.5 ml of the ice cold media. Then cells were transferred to Eppendorf tubes and washed once with 0.2M acetic acid, 0.5M NaCl, pH 2.8. After centrifugation at 1000 g for 10 min cells were dissolved in 0.5 ml of 0.5 N NaOH and counted in Wizard 3 1480 Automatic Gamma Counter (Perkin Elmer, Wallac).

E14 dopamine neurons = test: Internalization of iodinated proteins into dopamine neurons; type: cell-based, mouse; conditions: 30,000 cpm iodinated protein, 37° C., 2 hr, acid wash
Procedure: 2 hr. The cells were transferred to ice and washed once with 0.5 ml of the ice cold media. Then cells were transferred to Eppendorf tubes and washed at 4° C. once with 0.2M acetic acid, 0.5M NaCl, pH 2.8.

Molecule	rotarod latency to fall (motor behavior) [1]	living fluorescent neurons, percentage of initial neurons [2]	6-OHDA-induced behavioral and histological symptoms [3]	living fluorescent neurons, percentage of initial neurons (ER stressed SCG neurons)	radioactivity inside the cells (cell membrane penetration) (rat PC6 cells)	radioactivity inside the cells (internalization) (E14 dopamine neurons)
CDNF: cerebral dopamine neurotrophic factor; mature human CDNF, SEQ ID NO: 7, 161 amino acids	not CDNF improved motor behavior statistically significantly	rescue ER stressed superior cervical ganglia (SCG) sympathetic neurons	potently prevent the 6-OHDA-induced behavioral and histological symptoms	rescue ER stressed SCG neurons		
^125I-CDNF: full length CDNF iodinated with 125I-Na using the lactoperoxidase method					not full length iodinated CDNF penetrate cell membrane	not ^125I-CDNF is efficiently internalized
MANF: mesencephalic astrocyte-derived neurotrophic factor; mature human MANF, SEQ ID NO: 9, 158 amino acids (protein, listed as Homo sapiens) LRPGDCEVCISYLGRFYQDLKDRDVTFSPATIENELIKFCREARGKENRLCYYIGATDDAATKIINEVSKPLAHHIPVEKICEKLKKKDSQICELKYDKQIDLSTVDLKKLRVKELKKILDDWGETCKGCAEKSDYIRKINELMPKYAPKAASARTDL			potently prevent the 6-OHDA-induced behavioral and histological symptoms			
